Literature values as cited in PMC7926471 (Viruses, 2021).

System: SARS-CoV-2
Settings: pre and post treatment of Vero E6 cultures; cited from earlier work

Structure (SMILES): CCN(CC)CCCC(C)Nc1ccnc2cc(Cl)ccc12 (centres unmarked) [Chloroquine, chloroquine diphosphate]
- EC50: 1130 nM
- EC90: 6.9 µM
